Source: patent US9637476B2, “Atrasentan mandelate salts” (AbbVie Inc., priority 2013, dated 2017)
“And” between values parts separate entries of the source, which are not always exact repeats. Equal values may be shown once. Where a name gives a salt, the structure may show the parent alone. Read-outs that look alike come from different tables or passages of the source. Marks after values point to notes of the source that are not given here.

Experiments:
Assay type in all cases: physicochemical
[1] = Crystal morphology assessed by microscopy
[2] = Moisture sorption isotherm (DVS); conditions: 25° C.; as the relative humidity decreased below 10%
Protocol: A study was conducted to evaluate the moisture sorption isotherms of atrasentan hemi-sulfate salt (1:1 stoichiometry), monohydrate, and atrasentan S-mandelate salt (1:1 stoichiometry), anhydrate. A sample (about 5 mg to about 20 mg) of the powder to be tested was loaded onto the tared pan of a DVS Advantage dynamic gravimetric water sorption analyzer (Surface Measurement Systems Ltd, Alperton, United Kingdom). The moisture sorption isotherm for each sample was collected at 10% relative humidity intervals as the relative humidity was adjusted in the following manner: (a) 0% to 90% to 0% to 90% to 40% for the hemi-sulfate salt, and (b) 0% to 90% to 0% for the S-mandelate salt. For each step, the dm/dt criteria were 0.001% over 5 minutes with a minimum dm/dt time of 30 minutes and a maximum dm/dt of 120 minutes. Data was collected isothermally at 25° C. with a nitrogen flow rate of […]. The sample was maintained at 30% relative humidity and analyzed by PXRD. The moisture sorption isotherms generated for the hemi-sulfate and S-mandelate salt samples are shown in FIG. 6-A and FIG. 6-B, respectively.

[3] = Oxidative stability (urea-H2O2 co-crystal, HPLC); conditions: for RECOVERED (%): solid exposed to urea-H2O2 co-crystal, 40° C., HPLC, individual samples 1-3; for RECOVERED (%) / AVERAGE (%) recovered / AVERAGE % (NORMALIZED): seven days; for AVERAGE (%) recovered / AVERAGE % (NORMALIZED): urea-H2O2, 40° C.; for AVERAGE (%) recovered: mean of samples 1-3; for AVERAGE % (NORMALIZED): sample average normalized to freezer blank average
Protocol: About 1 mg of each solid was placed in a 4 mL glass vial and about 10 mg of urea-H2O2 co-crystal was placed in another 4 mL vial. The two vials then were connected by a connector (Kontes connector, 13-425X13-425, apt NO 747205-1313) and left in an oven at 40° C. for seven days. Blank samples were prepared by placing about 1 mg of each compound in a 4 mL vial and then storing the vial in a freezer at about −20° C. for the same period of time. The oven samples and freezer blanks were analyzed at the same time by HPLC. The measured data are reported in Table II-B below and the normalized data from Table II-B are shown in a bar chart in FIG. 3.

[4] = Bulk density and tap density (USP <616>); conditions: unmilled; USP <616> Method I, 100 mL cylinder
Protocol: Bulk and tap density are measured following United States Pharmacopeia and National Formulary guidelines (USP <616>). Approximately 60 mL of each sample is added into a 100 mL graduated cylinder. The powder is carefully leveled without compacting, and the volume is read directly from the cylinder and used to calculate the bulk density according to the relationship: mass/volume. The cylinder containing the powder sample is then mechanically tapped using a VanKel Tap Density Tester (Model 50-1200, Varian, Inc., Palo Alto, Calif.) until there is no change in volume. The volume of the sample is then read and used in the calculation of tap density.
Bulk density and tap density were measured for samples of the following materials: (i) unmilled atrasentan hydrochloride salt having the morphology and particle size distribution listed below in Table 10; and (ii) unmilled atrasentan mandelate salt having the morphology and particle size distribution listed below in Table 10. […] Bulk density was measured in accordance with Bulk Density, Method I of United States Pharmacopeia and National Formulary Guidelines (USP <616>) except that a 100 mL cylinder was filled with the sample for the testing. Tap density was measured in accordance with Tapped Density, Method I of United States Pharmacopeia and National Formulary guidelines (USP <616>) except that a 100 mL cylinder was filled with the sample for the testing.

[5] = Intrinsic dissolution rate as a function of chloride ion concentration; conditions: for IDR (intrinsic dissolution rate): pH 2.0 phosphate buffer, 37° C., 50 rpm; for linear regression intercept a of IDR = a + b × [Cl−] / linear regression slope b of IDR = a + b × [Cl−]: pH 2.0, [Cl−] 0 to 0.17 M
Protocol: (§1) About 100 mg of the sample tested was prepared by compressing the sample in a stainless steel die under 1100 pounds force with a dwell time of one minute to form a pellet. The die (diameter: 0.373 inch, area: 0.704 cm^2) containing the pellet was submerged in 250 mL of a phosphate buffer dissolution test medium having a pH of 2.0 and a chloride ion concentration of 0 M, 0.017 M, or 0.17 M. The medium was stirred by a paddle at 50 rpm and maintained at 37° C. To measure the concentration of the sample material in test medium, a fiber optic dip probe (μDiss Profile, pION
Inc) was used to monitor the UV absorbance as a function of time. The measured data are reported in Table 13-A below and are shown graphically in FIG. 5.
The intrinsic dissolution data reported in Table 13-A were further evaluated using linear regression analysis.

[6] = Morphology and particle size distribution of the unmilled samples; conditions: for PARTICLE SIZE DISTRIBUTION D10 / PARTICLE SIZE DISTRIBUTION D50 / PARTICLE SIZE DISTRIBUTION D90: unmilled; for MORPHOLOGY: unmilled sample used for density measurement
[7] = Intrinsic dissolution rate as a function of pH; conditions: for IDR (intrinsic dissolution rate): 37° C., 50 rpm, single runs
Protocol: as §1, with “of 2.0, 5.0,” for “of 2.0 and a chloride ion concentration of 0 M, 0.017 M,”, “or 7.4.” for “or 0.17 M.”, “in the” for “in test”, “pION Inc) was used to monitor the UV absorbance as a function of time. The measured data are reported in Table 12-A below and are shown graphically in FIG. 4.” for “pION”

CCCCN(CCCC)C(=O)CN1CC(c2ccc3c(c2)OCO3)C(C(=O)O)C1c1ccc(OC)cc1.O.O=S(=O)(O)O (stereo not drawn)
CRYSTAL MORPHOLOGY [1]: Needle
solid form change during moisture sorption isotherm [2]: partial conversion from the hydrate form to the anhydrate form

CCCCN(CCCC)C(=O)CN1CC(c2ccc3c(c2)OCO3)C(C(=O)O)C1c1ccc(OC)cc1.Cl (stereo not drawn)
CRYSTAL MORPHOLOGY [1]: Needle

CCCCN(CCCC)C(=O)CN1C[C@H](c2ccc3c(c2)OCO3)[C@@H](C(=O)O)[C@@H]1c1ccc(OC)cc1.Cl
CRYSTAL MORPHOLOGY [1]: Needle

CCCCN(CCCC)C(=O)CN1CC(c2ccc3c(c2)OCO3)C(C(=O)O)C1c1ccc(OC)cc1.O=C(O)C(O)c1ccccc1 (stereo not drawn)
CRYSTAL MORPHOLOGY [1]: Prism

CCCCN.CCCCN(CCCC)C(=O)CN1CC(c2ccc3c(c2)OCO3)C(C(=O)O)C1c1ccc(OC)cc1 (stereo not drawn)
CRYSTAL MORPHOLOGY [1]: Bar

CCCCN(CCCC)C(=O)CN1C[C@H](c2ccc3c(c2)OCO3)[C@@H](C(=O)O)[C@@H]1c1ccc(OC)cc1 [Hydrochloride]
RECOVERED (%) [3]: 87.62% and 87.21% and 83.11%
AVERAGE (%) recovered [3]: 85.98%
AVERAGE % (NORMALIZED) [3]: 89.48%
BULK DENSITY [4]: 0.11 g/mL
TAP DENSITY [4]: 0.20 g/mL
CRYSTAL MORPHOLOGY ([1]; listed as Hydrochloride (1:1 Stoichiometry), Crystalline Form II): Needle
IDR (intrinsic dissolution rate) ([5]; [Cl−] 0.0 M): 1.4 × 10^−1 (n = 1) mg/min/cm^2
IDR (intrinsic dissolution rate) ([5]; [Cl−] 0.017 M): 1.3 × 10^−1 (n = 1) mg/min/cm^2
IDR (intrinsic dissolution rate) ([5]; [Cl−] 0.17 M): 4.2 × 10^−2 (n = 1) mg/min/cm^2
linear regression intercept a of IDR = a + b × [Cl−] [5]: a2 = 0.1377
linear regression slope b of IDR = a + b × [Cl−] [5]: b2 = −0.5609
PARTICLE SIZE DISTRIBUTION D10 [6]: 6.0 μm
PARTICLE SIZE DISTRIBUTION D50 [6]: 20 μm
PARTICLE SIZE DISTRIBUTION D90 [6]: 86 μm
MORPHOLOGY [6]: Needle

CCCCN(CCCC)C(=O)CN1C[C@H](c2ccc3c(c2)OCO3)[C@@H](C(=O)O)[C@@H]1c1ccc(OC)cc1 [Parent, (2R,3R,4S)-4-(1,3-benzodioxol-5-yl)-1-[2-(dibutylamino)-2-oxoethyl]-2-(4-methoxyphenyl)pyaolidine-3-carboxylic acid]
RECOVERED (%) [3]: 93.76% and 91.62% and 89.37%
AVERAGE (%) recovered [3]: 91.58%
AVERAGE % (NORMALIZED) [3]: 89.56%
CRYSTAL MORPHOLOGY ([1]; Hemi-hydrate): Prism
IDR (intrinsic dissolution rate) ([7]; pH 2.0 phosphate buffer): 2.7 × 10^−2 (n = 1) mg/min/cm^2
IDR (intrinsic dissolution rate) ([7]; pH 5.0 phosphate buffer): 5.1 × 10^−3 mg/min/cm^2 and 5.4 × 10^−3 mg/min/cm^2
IDR (intrinsic dissolution rate) ([7]; pH 7.4 phosphate buffer): 3.6 × 10^−2 (n = 1) mg/min/cm^2

CCCCN(CCCC)C(=O)CN1C[C@H](c2ccc3c(c2)OCO3)[C@@H](C(=O)O)[C@@H]1c1ccc(OC)cc1 [Parent, Anhydrate, (2R,3R,4S)-4-(1,3-benzodioxol-5-yl)-1-[2-(dibutylamino)-2-oxoethyl]-2-(4-methoxyphenyl)pyaolidine-3-carboxylic acid]
CRYSTAL MORPHOLOGY [1]: Needle

CCCCN(CCCC)C(=O)CN1C[C@H](c2ccc3c(c2)OCO3)[C@@H](C(=O)O)[C@@H]1c1ccc(OC)cc1 [Parent, Quarter-hydrate, (2R,3R,4S)-4-(1,3-benzodioxol-5-yl)-1-[2-(dibutylamino)-2-oxoethyl]-2-(4-methoxyphenyl)pyaolidine-3-carboxylic acid]
CRYSTAL MORPHOLOGY [1]: Needle

CCCCN(CCCC)C(=O)CN1CC(c2ccc3c(c2)OCO3)C(C(=O)O)C1c1ccc(OC)cc1.CCCCN(CCCC)C(=O)CN1CC(c2ccc3c(c2)OCO3)C(C(=O)O)C1c1ccc(OC)cc1.O=C(O)C(O)c1ccccc1 (stereo not drawn) [S-Mandelate (2:1 Stoichiometry), Hydrate]
CRYSTAL MORPHOLOGY [1]: Prism

Mandelate
oxidative stability compared with atrasentan parent and hydrochloride salt ([3]; ANOVA of sample recovery proportion): greater oxidative stability
RECOVERED (%) [3]: 82.40% and 80.67% and 83.11%
AVERAGE (%) recovered [3]: 79.58%
AVERAGE % (NORMALIZED) [3]: 99.30%
BULK DENSITY [4]: 0.25 g/mL
TAP DENSITY [4]: 0.40 g/mL
CRYSTAL MORPHOLOGY [1]: Prism
IDR (intrinsic dissolution rate) ([5]; [Cl−] 0.0 M): 1.0 × 10^−1 (n = 1) mg/min/cm^2
IDR (intrinsic dissolution rate) ([5]; [Cl−] 0.017 M): 1.0 × 10^−1 (n = 1) mg/min/cm^2
IDR (intrinsic dissolution rate) ([5]; [Cl−] 0.17 M): 8.3 × 10^−2 (n = 3)** mg/min/cm^2
sensitivity of intrinsic dissolution rate to chloride ion concentration compared with hydrochloride salt ([5]; linear regression slopes): less sensitive to chloride ion concentration
linear regression intercept a of IDR = a + b × [Cl−] [5]: a1 = 0.1035
linear regression slope b of IDR = a + b × [Cl−] [5]: b1 = −0.1222
PARTICLE SIZE DISTRIBUTION D10 [6]: 16 μm
PARTICLE SIZE DISTRIBUTION D50 [6]: 49 μm
PARTICLE SIZE DISTRIBUTION D90 [6]: 141 μm
MORPHOLOGY [6]: Prismatic
IDR (intrinsic dissolution rate) ([7]; pH 5.0 phosphate buffer): 2.1 × 10^−2 mg/min/cm^2 and 1.8 × 10^−2 mg/min/cm^2
IDR (intrinsic dissolution rate) ([7]; pH 7.4 phosphate buffer): 1.1 × 10^−1 mg/min/cm^2 and 1.0 × 10^−1 mg/min/cm^2
intrinsic dissolution rate compared with atrasentan parent ([7]; paired t-test, pH 2.0, 5.0, 7.4): statistically greater intrinsic dissolution rate
